Assays:
pERK in DLD1 cells = experiment: ERK phosphorylation assay after EGF stimulation; type: cell-based; settings: Homo sapiens, DLD-1, compound 2 h, 200 ng/ml hEGF 5 minutes, alphascreen pERK, read-out: ERK phosphorylation inhibition IC50
How it was run: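 DLD1 cells pretreated 2 h with compound, then stimulated 5 minutes with 200 ng/ml hEGF. Lysates assayed for ERK1/2 p-T202/Y204 by AlphaScreen SureFire, read after 2 h at 25-28° C.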

hSOS1 and hKRASG12C = molecular target: T1, hSOS1 and hKRASG12C (Homo sapiens, UniProt Q07889); experiment: biochemical
T1 sequence (Q07889 564-1049): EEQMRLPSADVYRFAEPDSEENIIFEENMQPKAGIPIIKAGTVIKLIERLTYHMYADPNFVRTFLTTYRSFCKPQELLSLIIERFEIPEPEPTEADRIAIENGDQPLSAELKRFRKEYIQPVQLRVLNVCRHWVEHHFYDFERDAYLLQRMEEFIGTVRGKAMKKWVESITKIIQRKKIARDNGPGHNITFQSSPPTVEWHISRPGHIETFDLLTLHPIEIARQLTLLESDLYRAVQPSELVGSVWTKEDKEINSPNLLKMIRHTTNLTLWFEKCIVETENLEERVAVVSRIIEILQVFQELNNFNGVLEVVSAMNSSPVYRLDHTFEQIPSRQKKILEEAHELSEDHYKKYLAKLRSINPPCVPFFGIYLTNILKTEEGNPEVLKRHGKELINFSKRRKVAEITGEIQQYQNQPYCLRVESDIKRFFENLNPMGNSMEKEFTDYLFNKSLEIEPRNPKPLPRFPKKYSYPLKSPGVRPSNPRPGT

[1] = molecular target: T2, hSOS1 mediated nucleotide exchange on hKRASG12C (Homo sapiens, UniProt Q07889); experiment: biochemical
T2 sequence (Q07889 564-1049): T1 sequence (Q07889 564-1049)
Description: Example-127: Guanine Nucleotide Exchange Assay (GNEA)
GNEA assay was conducted to evaluate the effects of compounds on the nucleotide exchange on hKRASG12C mediated by hSOS1. Inhibitory effect of compounds on HIS-hSOS1, 564-1049aa mediated GTP loading onto GST-hKRASG12C, 1-169aa both expressed and purified in-house was assessed using HTRF detection technology in biochemical assay. Compounds were pre-incubated with hSOS1 working solution containing 10-50 nM hSOS1 and 200 nM EDA-GTP-DY-647P1 (Custom manufactured, Jena Biosciences) per well of a 384 well plate (Perkin Elmer, Cat #6007290) for 10 min at 20° C. in the assay buffer containing 10 mM HEPES, pH 7.4, 150 mM NaCl, 5 mM MgCl2, 1 mM DTT, 0.05% BSA fraction V and 0.0025% Igepal. Reaction was initiated by adding working solution of hKRASG12C containing 25-125 nM hKRASG12C and MAb Anti-GST-Tb (#61GSTTLA, Cisbio BioAssays) in assay buffer. Total assay volume was 15 μL. Reaction was continued for 30-60 min at 20° C. HTRF signal was recorded in PHERAStar microplate reader. Ratio of signal obtained at 665 nm and 620 nm was used to compute the percent inhibition of compound as follows.
Where, Positive control=hSOS1+EDA-GTP-DY-647P1+hKRASG12C+MAb Anti-GST-Tb Negative control=EDA-GTP-DY-647P1+hKRASG12C+MAb Anti-GST-Tb

SMILES | IC50 (pERK in DLD1 cells) [nM] | IC50 (hSOS1 and hKRASG12C) [nM] | IC50 [1] [nM]
COCC1(O)CCN(c2cc3c(N[C@H](C)c4cc(N)cc(C(F)(F)F)c4)nc(C)nc3c3c2CCC3)CC1 [Compound 47, (R)-1-(4-((1-(3-amino-5-(trifluoromethyl)phenyl)ethyl)amino)-2-methyl-8,9-dihydro-7H-cyclopenta[h]quinazolin-6-yl)-4-(methoxymethyl)piperidin-4-ol] | 1 to 200 | 1 to 10 | 1 to 30
Cc1nc(N[C@H](C)c2cc(N)cc(C(F)(F)F)c2)c2cc(N3CCC(O)CC3)c3c(c2n1)CCC3 [Compound 48, (R)-1-(4-((1-(3-amino-5-(trifluoromethyl)phenyl)ethyl)amino)-2-methyl-8,9-dihydro-7H-cyclopenta[h]quinazolin-6-yl)piperidin-4-ol] | 1 to 200 | 1 to 10 | 1 to 30
Cc1nc(N[C@H](C)c2cc(N)cc(C(F)(F)F)c2)c2cc(N3CCC(CO)CC3)c3c(c2n1)CCC3 [Compound 49, (R)-(1-(4-((1-(3-amino-5-(trifluoromethyl)phenyl)ethyl)amino)-2-methyl-8,9-dihydro-7H-cyclopenta[h]quinazolin-6-yl)piperidin-4-yl)methanol] | 1 to 200 | 1 to 10 | 1 to 30
Cc1nc(N[C@H](C)c2cc(N)cc(C(F)(F)F)c2)c2cc(N3CCC(C)(O)CC3)c3c(c2n1)CCC3 [Compound 50, (R)-1-(4-((1-(3-amino-5-(trifluoromethyl)phenyl)ethyl)amino)-2-methyl-8,9-dihydro-7H-cyclopenta[h]quinazolin-6-yl)-4-methylpiperidin-4-ol] | 1 to 200 | 1 to 10 | 1 to 30
Cc1nc(N[C@H](C)c2cc(N)cc(C(F)(F)F)c2)c2cc(N3CCC(C(C)(C)O)CC3)c3c(c2n1)CCC3 [Compound 51, (R)-2-(1-(4-((1-(3-amino-5-(trifluoromethyl)phenyl)ethyl)amino)-2-methyl-8,9-dihydro-7H-cyclopenta[h]quinazolin-6-yl)piperidin-4-yl)propan-2-ol] | 1 to 200 | 1 to 10 | 1 to 30
Cc1nc(N[C@H](C)c2cc(N)cc(C(F)(F)F)c2)c2cc(N3CC4(CC(O)C4)C3)c3c(c2n1)CCC3 [Compound 52, (R)-2-(4-((1-(3-amino-5-(trifluoromethyl)phenyl)ethyl)amino)-2-methyl-8,9-dihydro-7H-cyclopenta[h]quinazolin-6-yl)-2-azaspiro[3.3]heptan-6-ol] | 1 to 200 | 1 to 10 | 1 to 30
Cc1nc(N[C@H](C)c2cc(N)cc(C(F)(F)F)c2)c2cc(N3CCNC(=O)C3)c3c(c2n1)CCC3 [Compound 53, (R)-4-(4-((1-(3-amino-5-(trifluoromethyl)phenyl)ethyl)amino)-2-methyl-8,9-dihydro-7H-cyclopenta[h]quinazolin-6-yl)piperazin-2-one] | 1 to 200 | 1 to 10 | 1 to 30
COCC1CCN(c2cc3c(N[C@H](C)c4cc(N)cc(C(F)(F)F)c4)nc(C)nc3c3c2CCC3)CC1 [Compound 54, (R)—N-(1-(3-amino-5-(trifluoromethyl)phenyl)ethyl)-6-(4-(methoxymethyl)piperidin-1-yl)-2-methyl-8,9-dihydro-7H-cyclopenta[h]quinazolin-4-amine] | 1 to 200 | 11 to 20 | 31 to 70
Cc1nc(N[C@H](C)c2cc(N)cc(C(F)(F)F)c2)c2cc(N3CCN(C)C(=O)C3)c3c(c2n1)CCC3 [Compound 56, (R)-4-(4-((1-(3-amino-5-(trifluoromethyl)phenyl)ethyl)amino)-2-methyl-8,9-dihydro-7H-cyclopenta[h]quinazolin-6-yl)-1-methylpiperazin-2-one] | 1 to 200 | 1 to 10 | 1 to 30
COCC1CCN(c2cc3c(N[C@H](C)c4cccc(C(F)(F)C(C)(C)O)c4F)nc(C)nc3c3c2CCC3)CC1 [Compound 57, (R)-1,1-difluoro-1-(2-fluoro-3-(1-((6-(4-(methoxymethyl)piperidin-1-yl)-2-methyl-8,9-dihydro-7H-cyclopenta[h]quinazolin-4-yl)amino)ethyl)phenyl)-2-methylpropan-2-ol] | 1 to 200 | 1 to 10 | 1 to 30
Cc1nc(N[C@H](C)c2cccc(C(F)(F)C(C)(C)O)c2F)c2cc(N3C[C@@H]4[C@@H](CO)[C@@H]4C3)c3c(c2n1)CCC3 [Compound 58, 1,1-difluoro-1-(2-fluoro-3-((R)-1-((6-((1R,5S,6R)-6-(hydroxymethyl)-3-azabicyclo[3.1.0]hexan-3-yl)-2-methyl-8,9-dihydro-7H-cyclopenta[h]quinazolin-4-yl)amino)ethyl)phenyl)-2-methylpropan-2-ol] | 1 to 200 | 1 to 10 | 1 to 30
Cc1nc(N[C@H](C)c2cccc(C(F)(F)C(C)(C)O)c2F)c2cc(N3CCOCC3)c3c(c2n1)CCC3 [Compound 59, (R)-1,1-difluoro-1-(2-fluoro-3-(1-((2-methyl-6-morpholino-8,9-dihydro-7H-cyclopenta[h]quinazolin-4-yl)amino)ethyl)phenyl)-2-methylpropan-2-ol] | 1 to 200 | 1 to 10 | 1 to 30
Cc1nc(N[C@H](C)c2cccc(C(F)(F)C(C)(C)O)c2F)c2cc(N3CCC(C)(CO)CC3)c3c(c2n1)CCC3 [Compound 60, (R)-1,1-difluoro-1-(2-fluoro-3-(1-((6-(4-(hydroxymethyl)-4-methylpiperidin-1-yl)-2-methyl-8,9-dihydro-7H-cyclopenta[h]quinazolin-4-yl)amino)ethyl)phenyl)-2-methylpropan-2-ol] | 1 to 200 | 1 to 10 | 1 to 30
COC[C@H]1CN(c2cc3c(N[C@H](C)c4cccc(C(F)(F)C(C)(C)O)c4F)nc(C)nc3c3c2CCC3)CCO1 [Compound 62, 1,1-difluoro-1-(2-fluoro-3-((R)-1-((6-((R)-2-(methoxymethyl)morpholino)-2-methyl-8,9-dihydro-7H-cyclopenta[h]quinazolin-4-yl)amino)ethyl)phenyl)-2-methylpropan-2-ol] | 1 to 200 | 1 to 10 | 1 to 30
COCC1(O)CCN(c2cc3c(N[C@H](C)c4cccc(C(F)(F)C(C)(C)O)c4F)nc(C)nc3c3c2CCC3)CC1 [Compound 63, (R)-1-(4-((1-(3-(1,1-difluoro-2-hydroxy-2-methylpropyl)-2-fluorophenyl)ethyl)amino)-2-methyl-8,9-dihydro-7H-cyclopenta[h]quinazolin-6-yl)-4-(methoxymethyl)piperidin-4-ol] | 1 to 200 | 1 to 10 | 1 to 30
Cc1nc(N[C@H](C)c2cccc(C(F)(F)C(C)(C)O)c2F)c2cc(N3CCC(CO)CC3)c3c(c2n1)CCC3 [Compound 64, (R)-1,1-difluoro-1-(2-fluoro-3-(1-((6-(4-(hydroxymethyl)piperidin-1-yl)-2-methyl-8,9-dihydro-7H-cyclopenta[h]quinazolin-4-yl)amino)ethyl)phenyl)-2-methylpropan-2-ol] | 1 to 200 | 1 to 10 | 1 to 30
Cc1nc(N[C@H](C)c2cccc(C(F)(F)C(C)(C)O)c2F)c2cc(N3CCC(O)CC3)c3c(c2n1)CCC3 [Compound 65, (R)-1-(4-((1-(3-(1,1-difluoro-2-hydroxy-2-methylpropyl)-2-fluorophenyl)ethyl)amino)-2-methyl-8,9-dihydro-7H-cyclopenta[h]quinazolin-6-yl)piperidin-4-ol] | 1 to 200 | 1 to 10 | 1 to 30
COCC1(O)CCN(c2cc3c(N[C@H](C)c4cccc(C(F)(F)CO)c4F)nc(C)nc3c3c2CCC3)CC1 [Compound 68, (R)-1-(4-((1-(3-(1,1-difluoro-2-hydroxyethyl)-2-fluorophenyl)ethyl)amino)-2-methyl-8,9-dihydro-7H-cyclopenta[h]quinazolin-6-yl)-4-(methoxymethyl)piperidin-4-ol] | 1 to 200 | 1 to 10 | 1 to 30
COCC1(O)CCN(c2cc3c(N[C@H](C)c4cccc(C(F)(F)COC)c4F)nc(C)nc3c3c2CCC3)CC1 [Compound 69, (R)-1-(4-((1-(3-(1,1-difluoro-2-methoxyethyl)-2-fluorophenyl)ethyl)amino)-2-methyl-8,9-dihydro-7H-cyclopenta[h]quinazolin-6-yl)-4-(methoxymethyl) piperidin-4-ol] | 1 to 200 | 1 to 10 | 1 to 30
COCC1(O)CCN(c2cc3c(N[C@H](C)c4cccc(C(F)(F)CCO)c4F)nc(C)nc3c3c2CCC3)CC1 [Compound 71, (R)-1-(4-((1-(3-(1,1-difluoro-3-hydroxypropyl)-2-fluorophenyl)ethyl)amino)-2-methyl-8,9-dihydro-7H-cyclopenta[h]quinazolin-6-yl)-4-(methoxymethyl) piperidin-4-ol] | 1 to 200 | 1 to 10 | 1 to 30
Cc1nc(N[C@H](C)c2cccc(C(F)(F)CO)c2F)c2cc(N3CCOCC3)c3c(c2n1)CCC3 [Compound 75, (R)-2,2-difluoro-2-(2-fluoro-3-(1-((2-methyl-6-morpholino-8,9-dihydro-7H-cyclopenta[h]quinazolin-4-yl)amino)ethyl)phenyl)ethan-1-ol] | 1 to 200 | 1 to 10 | 1 to 30

— patent publication US12435066B2, “Substituted tricyclic compounds” (LUPIN LIMITED, priority 2019, dated 2025)
